In ChEMBL document CHEMBL4330184, “Aryl Substituted Benzimidazolones as Potent HIV-1 Non-Nucleoside Reverse Transcriptase Inhibitors” (ACS Med Chem Lett, 2019):

How the values were obtained:
[1] = Cytotoxicity against HEK293T cells assessed as reduction in cell viability after 48 hrs by CellTiter 96 aqueous one solution assay; assay type: cell-based, HEK-293T; conditions: human
[2] = system: Human immunodeficiency virus 1; assay: Selectivity ratio of IC50 for HIV1 reverse transcriptase K103N mutant in HIV1 infected HEK293T cells to IC50 for wild-type HIV1 reverse transcriptase in HIV1 infected HEK293T cells
[3] = system: Human immunodeficiency virus 1; assay: Selectivity ratio of IC50 for HIV1 reverse transcriptase Y181C mutant in HIV1 infected HEK293T cells to IC50 for wild-type HIV1 reverse transcriptase in HIV1 infected HEK293T cells
[4] = system: Human immunodeficiency virus 1; assay: Selectivity ratio of IC50 for HIV1 reverse transcriptase V106M mutant in HIV1 infected HEK293T cells to IC50 for wild-type HIV1 reverse transcriptase in HIV1 infected HEK293T cells

Row | SMILES | CC50 at 48 h [1] [µM] | other results
1 | CCC(c1ccccc1)n1c(=O)[nH]c2ccc(Cl)cc21 (racemic) | 55 | Ratio IC50 [2]: > 10; Ratio IC50 [3]: > 10
2 | CCn1c(=O)[nH]c2cccc(Oc3cc(C#N)ccn3)c21 | > 100 | –
3 | CCn1c(=O)[nH]c2cccc(Oc3cc(C#N)cc(C#N)c3)c21 | 96.6 | –
4 | CCn1c(=O)[nH]c2cccc(Oc3ccccc3)c21 | 55 | –
5 | CCn1c(=O)[nH]c2cccc(Oc3cc(C)cc(C)c3)c21 | 7.16 | –
6 | CCn1c(=O)[nH]c2cccc(Oc3ccnc(Cl)c3)c21 | 95.1 | –
7 | CC1(C)OC(=O)Nc2cccc(Oc3cc(Cl)cc(C#N)c3)c21 | 82.7 | –
8 | CCCn1c(=O)[nH]c2cccc(Oc3cc(Cl)cc(C#N)c3)c21 | 24.8 | –
9 | CCn1c(=O)[nH]c2cccc(Oc3cccc4ccccc34)c21 | 31.3 | –
10 | Cn1c(=O)[nH]c2cccc(Oc3cc(Cl)cc(C#N)c3)c21 | 53.4 | Ratio IC50 [4]: > 10
11 | Cc1ccnc2c1NC(=O)c1cccnc1N2C1CC1 [NEVIRAPINE] | 92.7 | –
12 | CCn1c(=O)[nH]c2cccc(Oc3cc(Cl)cc(C#N)c3)c21 | 24.1 | Ratio IC50 [4]: > 10
13 | CCn1c(=O)[nH]c2cccc(Oc3cc(C#N)cc(/C=C/C#N)c3)c21 | 9.7 | –
14 | CCn1c(=O)[nH]c2cccc(Oc3ccnc(C#N)c3)c21 | > 100 | –
